Key:
[1] = system: HLA-A*0201+ donor-derived PBMCs; experiment: In vitro stimulation of donor PBMCs with peptide, tetramer staining of CD8+ T-cells
Procedure: Peripheral blood mononuclear cells from an HLA-A ? + donor were stimulated in vitro with the H3.3.K27M peptide and evaluated for their reactivity against: (1A) HLA-A ? /H3.3.K27M-specific tetramer and anti-CD8 mAb, and (1B) T2 cells pulsed with the mutant or non-mutated H3.3 peptide by IFN-γ ELISA.
Induction and isolation of H3.3K27M-specific CTL clones. To generate dendritic cells, the plastic adherent cells from PBMCs were cultured in AIM-V medium (Invitrogen) supplemented with 1,000 units/mL recombinant human granulocyte macrophage colony-stimulating factor and 500 units/mL recombinant human IL-4 (rhIL-4; Cell Sciences) at 37° C. in a humidified CO2 (5%) incubator. Six days later, the immature dendritic cells were stimulated with recombinant human tumor necrosis factor-α, IL-6, and IL-1 (10 ng/mL each). Mature dendritic cells were then harvested on day 8, resuspended in AIM-V medium at 1×10^6 cells per mL with peptide (10 μg/mL), and incubated for 2 hours at 37° C. Populations of autologous CD8^+ T-cells were enriched from PBMCs using magnetic microbeads (Miltenyi Biotech). CD8^+ T-cells (2×10^6 per well) were co-cultured with 2×10^5 per well peptide-pulsed dendritic cells in 2 mL/well of AIM-V medium supplemented with 5% human AB serum, 10 units/mL rhIL-2 (R&D Systems, Minneapolis, Minn.), and 10 units/mL rhIL-7 (Cell Sciences) in each well of 24-well tissue culture plates. On day 15, lymphocytes were re-stimulated with autologous dendritic cells pulsed with peptide in AIM-V medium supplemented with 5% human AB serum, rhIL-2, and rhIL-7 (10 units/mL each).
HLA-A*0201-peptide tetramer staining. […] (SEQ ID NO:2) tetramer (H3.3K27M-tetramer) was produced by the National Institute of Allergy and Infectious Disease tetramer facility within the Emory University Vaccine Center (Atlanta, Ga.) using the peptide synthesized by A&A labs (San Diego; CA). […] Cells were then washed with FACS Buffer (PBS containing 1% FBS). For some experiments, T-cells were stained with tetramer, followed by anti-human CD8 APC (Biolegend, 344722) and anti-human CD69 FITC (eBioscience, 11-0699-42).

[2] = system: purified HLA-A2 class I molecules; experiment: Competitive binding inhibition assay with purified HLA-A2 and radiolabeled probe peptide; design: species or system human; conditions: cell-free binding assay, FIG. 8A

Sequence	CD8+tetramer+ population ([1]; FIG. 2A)	tetramer high subpopulation ([1]; FIG. 2A)	CD8+ cells bound to the HLA-A*0201-H3.3.K27M (26-35) tetramer ([1]; several weekly stimulation cycles in vitro)	affinity to HLA-A*0201 relative to H3.3.K27M (26-35) [2]
RMSAPSTGGV [H3.3.K27M (26-35)]	64.1 % of total lymphocyte-gated cells	2.4 % of total lymphocyte-gated cells	over 60%	
XMSAPSTGGV [Cit H3.3]				partially retains its affinity
